SMILES strings stand for the structures.

The test system of experiment [1] is chronic constriction nerve injury model rat. Kind of experiment: Chronic constriction nerve injury model rat, mechanical allodynia by von Frey test. Format: in vivo. On the procedure:
This test was performed by referring to a method of Bennett et al. (Pain, 1988, vol. 33, pp. 87-107). Compound A was used as a test substance, and celecoxib, one of NSAIDs, was used as a reference substance. The compound A was administered at a dose of 30 mg/kg (Compound A group). The celecoxib was administered at a dose of 30 mg/kg (celecoxib group). To a control group, a 0.5% methyl cellulose aqueous solution used as a vehicle was administered. Under anesthetic with Somnopentyl (manufactured by Kyoritsu Seiyaku Corporation, about 52 mg/kg, intraperitoneal administration), nerve constriction operation was performed on the left sciatic nerves of Sprague-Dawley male rats (7 weeks old). Briefly, a left femoral region of each rat was dissected, the sciatic nerve was detached from tissues around, and the nerve was loosely constricted with a 4-0 silk suture (manufactured by Eticon Inc., surgical silk) for having narrow parts in four positions at intervals of about 1 mm. The muscular layer and the skin were respectively sutured, and the operation region was disinfected. The vehicle, the test substance or the reference substance was orally administered once a day continuously for 14 days from the 16th day after the operation. From the start of the administration, pain sense (mechanical allodynia) of the footpad of left hind paw was evaluated by von Frey test. […] The evaluation of the pain sense was expressed as an average of pain threshold values.

In a further experiment the target is T1, MIF (Homo sapiens, UniProt P14174).
T1 construct: (catalogue number not given); host or cells: E. coli BL21 Star (DE3)
T1 sequence (P14174 2-115 limits assumed): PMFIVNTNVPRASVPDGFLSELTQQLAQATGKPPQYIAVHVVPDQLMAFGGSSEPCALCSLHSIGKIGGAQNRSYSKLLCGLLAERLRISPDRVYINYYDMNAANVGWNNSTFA
The experiment can be described thus: Confirmation of the binding of Compound A and MIF (compound beads pull-down from THP-1 cell lysate, Western blotting). As to conditions: elution with 0.5 mmol/L Compound A, anti-MIF Western blotting. On the procedure: THP-1 cells were cultured for about 6 hours in PRMI 1640 medium containing 1% fetal bovine serum and 50 μmol/L 2-mercaptoethanol. Then, lipopolysaccharide (E. coli 0127:B8, Sigma Aldrich) was added to the culture plate at a final concentration of 1 μg/mL, and the cells were cultured for about 30 minutes. The cells were harvested and washed with phosphate buffered saline, and mixed with about 2-fold volume of cell lysis buffer (20 mmol/L Tris, 150 mmol/L sodium chloride, 1 mmol/L magnesium chloride, 0.1% NP-40, 1 mmol/L dithiothreitol, 0.1% Triton X-100, pH 7.4). The resultant mixture was placed on ice with occasional stirring for about 30 minutes, and was centrifuged (20000×g, 4° C., 8 minutes). The separated and gained supernatant was used as cell lysate. Protein concentration of the cell lysate was measured with BCA protein assay reagent (Thermo Fisher Scientific K.K.) in accordance with its manual.
Immobilization of 4-amino-N-[7-[(methylsulfonyl)amino]-4-oxo-6-phenoxy-4H-1-benzopyran-3-yl]butanamide hydrochloride on Dynabeads M-270 Carboxylic Acid (Life Technologies Corporation) was performed by a general method. […]
On the technique in general: A western blot detects proteins with antibodies after separation by electrophoresis.

With `CS(=O)(=O)Nc1cc2occ(NC=O)c(=O)c2cc1Oc1ccccc1` [Compound A, N-[7-[(methylsulfonyl)amino]-4-oxo-6-phenoxy-4H-1-benzopyran-3-yl]formamide], the “Effect on the symptom of mechanical allodynia” value in experiment [1] (30 mg/kg orally once a day for 14 days, compared with control group) is on record as “inhibited the symptom of the mechanical allodynia”. Besides, the “Average of pain thresholds, 30th day after operation” value in experiment [1] (von Frey test, left hind paw, 30 mg/kg orally once a day for 14 days from the 16th day after operation) came out at 13.5 g. In experiment [1] (von Frey test, left hind paw, day before start of administration, 30 mg/kg groups), the “Average of pain thresholds, 15th day after operation” value was determined as 2.4 g. The “Binding of MIF to Compound A” value on MIF is “specifically binds”.

Values taken from patent US9918963B2, “Therapeutic agent for disease based on inhibitory effect of macrophage migration inhibitory factor” (TOYAMA CHEMICAL CO., LTD., priority 2013, dated 2018).
